Assay results: ChEMBL document CHEMBL1123068, “2-Fluoroformycin and 2-aminoformycin. Synthesis and biological activity” (J Med Chem, 1985)

Experiment: Ratio of kinetic parameters Vmax to the of Km.

Nc1ncnc2c1ncn2[C@@H]1O[C@H](CO)[C@@H](O)[C@H]1O
Ratio: 15

Nc1nc(F)nc2c1ncn2[C@@H]1O[C@H](CO)[C@@H](O)[C@@H]1O
Ratio: 0.0096

Nc1nc(N)c2ncn([C@@H]3O[C@H](CO)[C@@H](O)[C@H]3O)c2n1
Ratio: 3.6
